Measurements taken from ChEMBL document CHEMBL3885861, “Open TG-GATES”.

Species: Rattus norvegicus
Test: Open TG-GATES - Regimen: Single
Format: toxicity, organism-based, Sprague-Dawley
Parameters: regimen Single, gender Male, age 6 weeks
Settings: in vivo, po, 10 mg/kg, route gavage, dose level Low; for APTT / Bas / Eos / Fbg / Hb / Ht / Lym / MCH / MCHC / MCV / Mono / Neu / PT / Plat / RBC / Ret / WBC: tissue Blood; for KIDNEY_L / KIDNEY_R / KIDNEY_TOTAL: tissue Kidney; for LIVER: tissue Liver; for A/G / ALP / ALT / AST / BUN / CRE / Ca / Cl / DBIL / GLC / IP / K / LDH / Na / PL / RALB / TBIL / TC / TG / TP / gamma-GTP: tissue Plasma

## CCCc1cc(=O)[nH]c(=S)[nH]1 [PROPYLTHIOURACIL]
3 h
  TERMINAL_BW: 181.7 g
  APTT: 15.5 s
  Bas: 0%
  Eos: 0.6%
  Fbg: 202.8 mg/dL
  Hb: 13.1 g/dL
  Ht: 39.5%
  Lym: 78.6%
  MCH: 22.3 pg
  MCHC: 33.3%
  MCV: 66.9 fL
  Mono: 8.6%
  Neu: 12.4%
  PT: 12.9 s
  Plat: 102.8 x10_4/uL
  RBC: 590.2 x10_4/ul
  Ret: 10.1%
  WBC: 92.2 x10_2/uL
  KIDNEY_L: 0.9 g
  KIDNEY_R: 0.9 g
  KIDNEY_TOTAL: 1.7 g
  LIVER: 8.4 g
  A/G: 2
  ALP: 982.6 IU/L
  ALT: 41.6 IU/L
  AST: 72.2 IU/L
  BUN: 12 mg/dL
  CRE: 0.4 mg/dL
  Ca: 11.1 mg/dL
  Cl: 105 meq/L
  DBIL: 0.042 mg/dL
  GLC: 191.4 mg/dL
  IP: 10.3 mg/dL
  K: 4.8 meq/L
  LDH: 92 IU/L
  Na: 138.6 meq/L
  PL: 122.2 mg/dL
  RALB: 3.6 g/dL
  TBIL: 0.3 mg/dL
  TC: 69.2 mg/dL
  TG: 26.6 mg/dL
  TP: 5.5 g/dL
  gamma-GTP: 1.4 IU/L
6 h
  TERMINAL_BW: 174.6 g
  APTT: 15.6 s
  Bas: 0%
  Eos: 0.8%
  Fbg: 208.2 mg/dL
  Hb: 13.7 g/dL
  Ht: 41.1%
  Lym: 78.4%
  MCH: 22 pg
  MCHC: 33.3%
  MCV: 66 fL
  Mono: 7.4%
  Neu: 13.4%
  PT: 12.8 s
  Plat: 100.8 x10_4/uL
  RBC: 622.8 x10_4/ul
  Ret: 8.9%
  WBC: 89.5 x10_2/uL
  KIDNEY_L: 0.8 g
  KIDNEY_R: 0.8 g
  KIDNEY_TOTAL: 1.7 g
  LIVER: 7.7 g
  A/G: 2
  ALP: 969.6 IU/L
  ALT: 33 IU/L
  AST: 64.6 IU/L
  BUN: 12.4 mg/dL
  CRE: 0.5 mg/dL
  Ca: 10.8 mg/dL
  Cl: 105.4 meq/L
  DBIL: 0.05 mg/dL
  GLC: 181.8 mg/dL
  IP: 10.6 mg/dL
  K: 5.2 meq/L
  LDH: 68 IU/L
  Na: 138.4 meq/L
  PL: 125.8 mg/dL
  RALB: 3.6 g/dL
  TBIL: 0.4 mg/dL
  TC: 68.4 mg/dL
  TG: 34.6 mg/dL
  TP: 5.4 g/dL
  gamma-GTP: 1.4 IU/L
9 h
  TERMINAL_BW: 177.5 g
  APTT: 16 s
  Bas: 0%
  Eos: 1.4%
  Fbg: 214.2 mg/dL
  Hb: 13.1 g/dL
  Ht: 39.3%
  Lym: 67%
  MCH: 22 pg
  MCHC: 33.3%
  MCV: 66 fL
  Mono: 11.8%
  Neu: 19.6%
  PT: 12.9 s
  Plat: 109.3 x10_4/uL
  RBC: 596 x10_4/ul
  Ret: 10.2%
  WBC: 70.1 x10_2/uL
  KIDNEY_L: 0.8 g
  KIDNEY_R: 0.9 g
  KIDNEY_TOTAL: 1.7 g
  LIVER: 7.7 g
  A/G: 2.1
  ALP: 791.6 IU/L
  ALT: 32 IU/L
  AST: 59.2 IU/L
  BUN: 12.8 mg/dL
  CRE: 0.4 mg/dL
  Ca: 10.7 mg/dL
  Cl: 106.4 meq/L
  DBIL: 0.01 mg/dL
  GLC: 192.6 mg/dL
  IP: 10.7 mg/dL
  K: 5.3 meq/L
  LDH: 84.2 IU/L
  Na: 138.2 meq/L
  PL: 135 mg/dL
  RALB: 3.6 g/dL
  TBIL: 0.4 mg/dL
  TC: 73.4 mg/dL
  TG: 38.8 mg/dL
  TP: 5.4 g/dL
  gamma-GTP: 1.4 IU/L
24 h
  TERMINAL_BW: 193.7 g
  APTT: 16.3 s
  Bas: 0%
  Eos: 1%
  Fbg: 209.4 mg/dL
  Hb: 13 g/dL
  Ht: 39.1%
  Lym: 77.2%
  MCH: 21.7 pg
  MCHC: 33.1%
  MCV: 65.4 fL
  Mono: 7.2%
  Neu: 14.8%
  PT: 12.3 s
  Plat: 102.3 x10_4/uL
  RBC: 598.4 x10_4/ul
  Ret: 9.7%
  WBC: 90 x10_2/uL
  KIDNEY_L: 0.9 g
  KIDNEY_R: 0.9 g
  KIDNEY_TOTAL: 1.8 g
  LIVER: 9.5 g
  A/G: 2.1
  ALP: 908.8 IU/L
  ALT: 39.8 IU/L
  AST: 65.6 IU/L
  BUN: 18.8 mg/dL
  CRE: 0.5 mg/dL
  Ca: 11 mg/dL
  Cl: 106.6 meq/L
  DBIL: 0.008 mg/dL
  GLC: 182.6 mg/dL
  IP: 7.3 mg/dL
  K: 5.2 meq/L
  LDH: 85.8 IU/L
  Na: 139.4 meq/L
  PL: 166.4 mg/dL
  RALB: 3.8 g/dL
  TBIL: 0.3 mg/dL
  TC: 94.8 mg/dL
  TG: 97.6 mg/dL
  TP: 5.6 g/dL
  gamma-GTP: 2.8 IU/L
